{"source": "patent US20130149395A1", "about": "“Pharmaceutical Product, Method of Production and Method of Application of the Pharmaceutical Product” (priority 2010, published 2013)", "assay": "Stability of 2,2-dichloropropionic acid during prolonged storage (NMR impurity identification)", "assay_type": "physicochemical", "conditions": "transforms into pyroracemic acid or alpha chloroacrylic acid", "description": "The impurity identification of 2,2-dichloropropionic acid, taken as an example, has been conducted using the method of NMR spectroscopy on the ^1H and ^13C nuclei, one of the most informative methods, which allows to determine the composition of each impurity even if the numerous related compounds are found in the sample.", "data": [{"molecule": "CC(Cl)(Cl)C(=O)O", "note": "[2,2-dichloropropionic acid]", "values": [{"measurement": "Stability to daylight and prolonged storage", "result": "daylight-sensitive"}]}]}
